Where a name gives a salt, the structure may show the parent alone.

This assay has as its system PDE4. Kind of assay: Inhibition of the PDE4 activity (Bauer and Schwabe method, adapted to microtiter plates). It counts as biochemical. The conditions noted are these: inhibitory concentration as -log IC50 (mol/l).
On to `COc1ccc(-c2nc3cnccc3[nH]2)c2c1OC1(CCCC1)C2` [Compound 4, 2-(2,3-Dihydro-7-methoxybenzofuran-2-spiro-1'-cyclopentan-4-yl)imidazolo[4,5-c]pyridin], for which the “-log IC50” value is on record as 8.08.

`COc1ccc(-c2nc3ncccc3o2)c2c1OC1(CCCC1)C2` [Compound 1, 2-(2,3-Dihydro-7-methoxybenzofuran-2-spiro-1'-cyclopentan-4-yl)oxazolo[4,5-b]pyridine]: the “-log IC50” value was 7.93.

As to `COc1ccc(-c2nc3cccnc3o2)c2c1OC1(CCCC1)C2` [Compound 2, 2-(2,3-Dihydro-7-methoxybenzofuran-2-spiro-1'-cyclopentan-4-yl)oxazolo[5,4-b]pyridine], the “-log IC50” value is 6.61.

Regarding `COc1ccc(-c2nc3c(Cl)nccc3[nH]2)c2c1OC1(CCCC1)C2` [Compound 7, 4-Chloro-2-(2,3-dihydro-7-methoxybenzofuran-2-spiro-1'-cyclopentan-4-yl)imidazo[4,5-c]pyridine], the “-log IC50” value is 7.98.

Regarding `COc1ccc(-c2nc3cnccc3[nH]2)c2c1OC1(CCCCC1)C2` [Compound 5, 2-(2,3-Dihydro-7-methoxybenzofuran-2-spiro-1'-cyclohexan-4-yl)imidazolo[4,5-c]pyridine], the “-log IC50” value came to 7.52.

Take `COc1ccc(-c2nc3ncccc3[nH]2)c2c1OC1(CCCCC1)C2` [Compound 6, 2-(2,3-Dihydro-7-methoxybenzofuran-2-spiro-1'-cyclohexan-4-yl)imidazo[4,5-b]pyridine dihydrochloride hemihydrate]: the “-log IC50” value is given as 6.90.

Consider `COc1ccc(-c2nc3cnccc3o2)c2c1OC1(CCCC1)C2` [Compound 3, 2-(2,3-Dihydro-7-methoxybenzofuran-2-spiro-1'-cyclopentan-4-yl)oxazolo[4,5-c]pyridine], for which the “-log IC50” value was determined as 8.76.

(Values after patent publication US6172074A, “Imidazopyridines and oxazolopyridines” (Byk Gulden Lomberg Chemische Fabrik GmbH, priority 1996, dated 2001).)
